Measurements taken from patent publication US20100035796A1 (priority 2005, published 2010).

Columns and labels:
[1] = target: T1, steroid sulphatase (Homo sapiens, UniProt P08842); conditions: R. P. Boivin et al., J. Med. Chem. 2000; cited from earlier work
T1 sequence (P08842 22-583): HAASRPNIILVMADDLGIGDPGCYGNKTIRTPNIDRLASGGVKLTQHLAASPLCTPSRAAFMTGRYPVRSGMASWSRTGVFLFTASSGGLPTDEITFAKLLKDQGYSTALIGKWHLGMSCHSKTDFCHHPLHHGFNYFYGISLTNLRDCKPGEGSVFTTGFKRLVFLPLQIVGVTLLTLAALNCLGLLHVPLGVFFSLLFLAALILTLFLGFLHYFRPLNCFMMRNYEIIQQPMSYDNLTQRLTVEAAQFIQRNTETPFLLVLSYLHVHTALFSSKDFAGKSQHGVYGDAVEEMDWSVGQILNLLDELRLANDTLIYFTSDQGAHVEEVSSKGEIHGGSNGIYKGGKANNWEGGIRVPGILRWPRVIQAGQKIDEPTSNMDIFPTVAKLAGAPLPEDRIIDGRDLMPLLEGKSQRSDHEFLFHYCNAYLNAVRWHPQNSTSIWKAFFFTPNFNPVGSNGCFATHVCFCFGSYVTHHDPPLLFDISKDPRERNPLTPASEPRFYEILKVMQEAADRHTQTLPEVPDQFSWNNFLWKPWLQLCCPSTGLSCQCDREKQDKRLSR

[2] = test system: IL-6; assay: Expression of inflammation markers in the wound model (second study): IL-6; type: in vivo, mice
[3] = test system: TGF-β; assay: Expression of inflammation markers in the wound model (second study): TGF-β; type: in vivo, mice
[4] = test system: wound; conditions: cited from earlier work; for wound-healing on topical use: used topically, Ashcroft et al. 2003b
[5] = test system: MIF; assay: Expression of inflammation markers in the wound model (second study): MIF; type: in vivo, mice
[6] = test system: sun-damaged skin; conditions: hairless mice; Gendimenico et al. 2002; cited from earlier work
[7] = test system: CD74; assay: Expression of inflammation markers in the wound model (second study): CD74; type: in vivo, mice
[8] = test system: ERβ; assay: Expression of estrogen receptors in ovariectomised animals: ERβ-positive cells; type: in vivo, mice
[9] = test system: estrogen receptor; assay: Activity on the estrogen receptor in ERE-luc mice, photometric analysis with CCD camera; type: in vivo
Protocol: (§1) The activity of two compounds of the invention, 17α-(5-acetoxy)pent-1-inyl-1,3,5(10)-estratriene-3,17β-diol and 17α-(5-propanoyl-oxy)pent-1-inyl-1,3,5(10)-estratriene-3,170-diol, was determined in a cell culture and in a transgenic animal model using female adult ERE-luc mice which were ovariectomised or sham-operated three weeks before the experiment. This model allows the anti-inflammatory activity, effect on the estrogen receptor and wound-healing activity to be evaluated.
(§2) Each of the two test compounds was dissolved immediately before use in 99% ethanol, and a 10 mM mother solution was prepared. The successive dilutions were performed in saline solution (0.9% NaCl in bidistilled water).
The activity on the estrogen receptor was evaluated by photometric analysis with CCD chamber after 0, 24, 48 and 72 hours. The animals were then killed, and the tissue surrounding the wound was removed.

[10] = test system: ERα; assay: Expression of estrogen receptors in ovariectomised animals: ERα-positive cells; type: in vivo, mice
[11] = test system: cutaneous wound; assay: Wound-healing activity: histological sections of the tissue surrounding the wound; type: in vivo, mice
Protocol: as §1, §2
Histological sections were prepared from the tissue surrounding the wound to evaluate the wound-healing activity. For the histological preparation, the tissue was fixed in 10% formalin (in buffer solution) and embedded in paraffin wax. The sections were stained with haematoxylin-eosin to evaluate the state of inflammation and wound-healing. The sections were also used to quantify the state of infiltration of the macrophages 4 days after the wound, using anti-Mac2 antibodies, and for further staining designed to detect the state of wound-healing and characterise the cells present in the wound area.

CC12CCC3c4ccc(O)cc4CCC3C1CCC2(O)C#CCO (stereo not drawn) [17α-(3-hydroxypropin-1-yl)estradiol]
inhibitory effect on steroid sulphatase [1]: very low

C[C@]12CC[C@@H]3c4ccc(O)cc4CC[C@H]3[C@@H]1CC[C@@H]2O [estradiol, 17beta-estradiol]
expression of IL-6 [2]: limit the expression of all the inflammation proteins studied
expression of TGF-β [3]: limit the expression of all the inflammation proteins studied
wound-healing on topical use [4]: promote wound-healing
expression of MIF [5]: limit the expression of all the inflammation proteins studied
repair of sun-damaged skin [6]: repair the sun-damaged skin of hairless mice
expression of CD74 [7]: limit the expression of all the inflammation proteins studied
number of cells that express the β estrogen receptor [8]: increases the number of cells that test positive for both receptors

CCC(=O)OCCCC#CC1(O)CCC2C3CCc4cc(O)ccc4C3CCC21C (stereo not drawn) [Example 8, 17α-(5-Propanoyloxy)pent-1-ynyl-1,3,5(10)-estratrien-3,17β-diol]
estrogenic effect in areas other than the area of administration (systemic activity) ([9]; CCD camera, intradermal in loco): a slight systemic activity

C[C@]12CC[C@@H]3c4ccc(O)cc4CC[C@H]3[C@@H]1CC[C@H]2O [17α-estradiol]
repair of sun-damaged skin [6]: repair the sun-damaged skin of hairless mice

C[C@]12CC[C@@H]3c4ccc(O)cc4CC[C@H]3[C@@H]1CC[C@@]2(O)C#CCBr [17α-(3-bromopropin-1-yl)estradiol]
inhibitory effect on steroid sulphatase [1]: high

C[C@]12CC[C@@H]3c4ccc(O)cc4CC[C@H]3[C@@H]1C[C@@H](O)[C@@H]2O [estriol]
activity relative to estradiol ([4]; Shah et al. 2001): much less active than estradiol
wound-healing on topical use [4]: promote wound-healing

CC(=O)OCCCC#C[C@]1(O)CC[C@H]2[C@@H]3CCc4cc(O)ccc4[C@H]3CC[C@@]21C [Example 7, 17α-(5-acetoxy)pent-1-ynyl-1,3,5(10)-estratrien-3,17β-diol]
number of cells that test positive for the α estrogen receptor [10]: does not act on the number of cells that test positive for the α receptor
estrogenic effect in areas other than the area of administration (systemic activity) ([9]; mouse, in vivo): does not have a detectable estrogenic effect
uterotrophic activity ([9]; mouse, in vivo): does not present uterotrophic activity
efficacy of the wound-healing effect ([11]; second study, 5 animals per group, compared with estradiol): statistically similar to that of the natural hormone
effect on the wound-healing process ([11]; summary statement): marked effect on the wound-healing process
expression of TGF-β [3]: significantly inhibited the expression
expression of MIF [5]: significantly inhibited the expression
expression of CD74 [7]: significantly inhibited the expression
number of cells that express the β estrogen receptor [8]: does not significantly reduce the number of cells that express the β receptor
